# Data reported in article PMC6018617, “Probing GABAA receptors with inhibitory neurosteroids” (Neuropharmacology, 2018).
# What was measured:
# [1] = target: T1, α6β2δ (Mus musculus, UniProt P16305+P22933+P63137); assay: whole-cell patch clamp, HEK cells, Hill fit; type: cell-based
# T1 construct: gene Gabra6; full-length subunits in pRK5, co-expressed in HEK cells; heteropentamer; with Gamma-aminobutyric acid receptor subunit delta
# Description: whole-cell patch clamp, HEK cells, Hill fit on α6β2δ
# [2] = target: T2, α3β2γ2L (Mus musculus, UniProt P22723+P26049+P63137); assay: whole-cell patch clamp, HEK cells, Hill fit; type: cell-based
# T2 construct: gene Gabra3; full-length subunits in pRK5, co-expressed in HEK cells; heteropentamer; with Gamma-aminobutyric acid receptor subunit gamma-2
# Description: whole-cell patch clamp, HEK cells, Hill fit on α3β2γ2L
# [3] = target: T3, α1β2 (Mus musculus, UniProt P62812+P63137); assay: whole-cell patch clamp, HEK cells; type: cell-based; settings: read-out: PS IC50
# T3 construct: gene Gabra1; full-length subunits in pRK5, co-expressed in HEK cells; heteropentamer without gamma
# Description: whole-cell patch clamp, HEK cells on α1β2
# [4] = target: T4, ρ1 (Homo sapiens, UniProt P24046); assay: whole-cell patch clamp, HEK cells; type: cell-based; settings: read-out: PS IC50
# T4 construct: gene GABRR1; full-length subunit in pRK5, HEK cells; homopentamer
# Description: whole-cell patch clamp, HEK cells on ρ1
# [5] = target: T5, α4β2δ (Mus musculus, UniProt P22933+P63137+Q9D6F4); assay: whole-cell patch clamp, HEK cells; type: cell-based; settings: read-out: PS IC50
# T5 construct: gene Gabra4; full-length subunits in pRK5, co-expressed in HEK cells; heteropentamer; with Gamma-aminobutyric acid receptor subunit delta
# Description: whole-cell patch clamp, HEK cells on α4β2δ
# [6] = target: T6, α1β2γ2L (Mus musculus, UniProt P22723+P62812+P63137, P62812:V283S); assay: whole-cell patch clamp, HEK cells; type: cell-based
# T6 construct: gene Gabra1; full-length subunits in pRK5, co-expressed 1:1:1 in HEK cells; heteropentamer; with Gamma-aminobutyric acid receptor subunit gamma-2
# [7] = target: T7, α1β3γ2L (Mus musculus, UniProt P22723+P62812+P63080); assay: whole-cell patch clamp, HEK cells; type: cell-based; settings: read-out: PS IC50
# T7 construct: gene Gabra1; full-length subunits in pRK5, co-expressed in HEK cells; heteropentamer; with Gamma-aminobutyric acid receptor subunit gamma-2
# Description: whole-cell patch clamp, HEK cells on α1β3γ2L
# [8] = target: T1, α6β2δ; assay: whole-cell patch clamp, HEK cells; type: cell-based; settings: read-out: PS IC50
# Description: whole-cell patch clamp, HEK cells on α6β2δ
# [9] = target: T2, α3β2γ2L; assay: whole-cell patch clamp, HEK cells; type: cell-based; settings: read-out: PS IC50
# Description: whole-cell patch clamp, HEK cells on α3β2γ2L
# [10] = system: T8, ρ1-260-α1; assay: whole-cell patch clamp, HEK cells; type: cell-based, Homo sapiens; Mus musculus; settings: steady-state current, co-applied with GABA EC80 (30 μM), pH 7.4, room temperature
# T8 construct: gene GABRR1; single-chain fusion: human rho1 ECD to residue 260 (start of M1), mouse alpha1 TMD with linkers; homopentamer in HEK cells
# [11] = system: T9, ρ1-260-γ2S; assay: whole-cell patch clamp, HEK cells; type: cell-based, Homo sapiens; Mus musculus; settings: co-applied with GABA EC80 (200 μM)
# T9 construct: gene GABRR1; single-chain fusion: human rho1 ECD to residue 260, mouse gamma2S TMD; homopentamer in HEK cells
# [12] = target: T10, ρ1 (Homo sapiens, UniProt P24046, P315V); assay: whole-cell patch clamp, HEK cells; type: cell-based
# T10 construct: gene GABRR1; full-length subunit in pRK5, HEK cells; homopentamer
# [13] = target: T11, β3 homomer (Mus musculus, UniProt P63080); assay: whole-cell patch clamp, HEK cells; type: cell-based; settings: 100 μM PS co-applied with 500 μM pentobarbitone
# T11 construct: gene Gabrb3; full-length subunit in pRK5, HEK cells; homopentamer
# [14] = target: T12, α1β2γ2L (Mus musculus, UniProt P22723+P62812+P63137); assay: whole-cell patch clamp, HEK cells; type: cell-based; settings: read-out: PS IC50
# T12 construct: gene Gabra1; full-length subunits in pRK5, co-expressed 1:1:1 in HEK cells; heteropentamer; with Gamma-aminobutyric acid receptor subunit gamma-2
# Description: whole-cell patch clamp, HEK cells on α1β2γ2L
# [15] = target: T13, α2β2γ2L (Mus musculus, UniProt P22723+P26048+P63137); assay: whole-cell patch clamp, HEK cells; type: cell-based; settings: read-out: PS IC50
# T13 construct: gene Gabra2; full-length subunits in pRK5, co-expressed in HEK cells; heteropentamer; with Gamma-aminobutyric acid receptor subunit gamma-2
# Description: whole-cell patch clamp, HEK cells on α2β2γ2L
# [16] = target: T14, α5β2γ2L (Mus musculus, UniProt P22723+P63137+Q8BHJ7); assay: whole-cell patch clamp, HEK cells; type: cell-based; settings: read-out: PS IC50
# T14 construct: gene Gabra5; full-length subunits in pRK5, co-expressed in HEK cells; heteropentamer; with Gamma-aminobutyric acid receptor subunit gamma-2
# Description: whole-cell patch clamp, HEK cells on α5β2γ2L
# [17] = target: T12, α1β2γ2L; assay: whole-cell patch clamp, HEK cells; type: cell-based; settings: GABA EC100 (1 mM), PTX pre-applied then co-applied; text calls it picrotoxin, reagent list picrotoxinin
# T12 sequence (P62812 28-455): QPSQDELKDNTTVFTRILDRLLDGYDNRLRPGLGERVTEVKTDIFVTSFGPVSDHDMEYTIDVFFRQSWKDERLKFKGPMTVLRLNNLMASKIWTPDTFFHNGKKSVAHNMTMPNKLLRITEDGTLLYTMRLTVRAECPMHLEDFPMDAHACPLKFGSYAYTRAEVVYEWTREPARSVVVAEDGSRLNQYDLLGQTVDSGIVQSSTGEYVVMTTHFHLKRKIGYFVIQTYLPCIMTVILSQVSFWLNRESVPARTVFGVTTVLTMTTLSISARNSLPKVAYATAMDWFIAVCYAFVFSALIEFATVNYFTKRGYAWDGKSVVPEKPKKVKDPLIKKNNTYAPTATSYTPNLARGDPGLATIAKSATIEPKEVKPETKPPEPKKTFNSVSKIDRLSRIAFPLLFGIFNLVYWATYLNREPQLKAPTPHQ
# T12 sequence (P63137 26-512): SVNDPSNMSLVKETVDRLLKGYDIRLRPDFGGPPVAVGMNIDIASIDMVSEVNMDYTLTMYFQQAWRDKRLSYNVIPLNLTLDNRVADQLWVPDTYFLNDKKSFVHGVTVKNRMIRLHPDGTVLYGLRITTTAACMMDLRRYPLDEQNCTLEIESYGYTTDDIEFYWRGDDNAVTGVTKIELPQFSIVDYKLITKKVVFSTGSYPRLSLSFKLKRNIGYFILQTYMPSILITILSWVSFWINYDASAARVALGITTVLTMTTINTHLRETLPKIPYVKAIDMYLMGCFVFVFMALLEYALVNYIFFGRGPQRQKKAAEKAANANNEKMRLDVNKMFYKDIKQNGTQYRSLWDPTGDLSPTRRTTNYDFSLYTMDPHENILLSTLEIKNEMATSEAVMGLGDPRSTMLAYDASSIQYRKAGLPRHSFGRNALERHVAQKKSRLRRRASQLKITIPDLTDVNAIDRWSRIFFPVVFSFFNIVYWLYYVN
# T12 sequence (P22723 39-474): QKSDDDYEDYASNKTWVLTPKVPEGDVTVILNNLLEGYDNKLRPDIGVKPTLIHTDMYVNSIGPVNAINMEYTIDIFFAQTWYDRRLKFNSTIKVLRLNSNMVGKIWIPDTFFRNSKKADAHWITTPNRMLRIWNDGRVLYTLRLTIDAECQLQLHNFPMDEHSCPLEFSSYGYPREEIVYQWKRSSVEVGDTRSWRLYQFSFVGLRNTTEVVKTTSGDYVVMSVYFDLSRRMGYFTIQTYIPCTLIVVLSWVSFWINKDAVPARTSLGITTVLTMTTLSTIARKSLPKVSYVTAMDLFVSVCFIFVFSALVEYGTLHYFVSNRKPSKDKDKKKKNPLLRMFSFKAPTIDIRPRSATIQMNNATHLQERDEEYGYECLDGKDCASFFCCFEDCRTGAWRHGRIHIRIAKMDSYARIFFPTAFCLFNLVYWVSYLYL
# T2 sequence (P26049 29-492): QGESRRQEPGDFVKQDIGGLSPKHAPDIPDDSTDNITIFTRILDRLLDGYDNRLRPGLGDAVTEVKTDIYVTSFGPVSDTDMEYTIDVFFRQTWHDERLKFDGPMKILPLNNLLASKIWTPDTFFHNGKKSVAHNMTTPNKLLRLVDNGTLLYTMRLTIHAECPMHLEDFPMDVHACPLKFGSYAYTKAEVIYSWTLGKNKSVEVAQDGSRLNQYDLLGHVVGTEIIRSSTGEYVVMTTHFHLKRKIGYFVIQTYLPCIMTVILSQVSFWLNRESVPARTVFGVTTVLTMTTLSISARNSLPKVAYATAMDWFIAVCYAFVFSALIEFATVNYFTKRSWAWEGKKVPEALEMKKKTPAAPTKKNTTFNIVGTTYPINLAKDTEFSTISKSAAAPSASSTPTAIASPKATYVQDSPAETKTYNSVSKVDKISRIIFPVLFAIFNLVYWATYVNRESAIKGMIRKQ
# T2 sequence (P63137 26-512): as the sequence (P63137 26-512) above
# T2 sequence (P22723 39-474): as the sequence (P22723 39-474) above
# T1 sequence (P16305 20-453): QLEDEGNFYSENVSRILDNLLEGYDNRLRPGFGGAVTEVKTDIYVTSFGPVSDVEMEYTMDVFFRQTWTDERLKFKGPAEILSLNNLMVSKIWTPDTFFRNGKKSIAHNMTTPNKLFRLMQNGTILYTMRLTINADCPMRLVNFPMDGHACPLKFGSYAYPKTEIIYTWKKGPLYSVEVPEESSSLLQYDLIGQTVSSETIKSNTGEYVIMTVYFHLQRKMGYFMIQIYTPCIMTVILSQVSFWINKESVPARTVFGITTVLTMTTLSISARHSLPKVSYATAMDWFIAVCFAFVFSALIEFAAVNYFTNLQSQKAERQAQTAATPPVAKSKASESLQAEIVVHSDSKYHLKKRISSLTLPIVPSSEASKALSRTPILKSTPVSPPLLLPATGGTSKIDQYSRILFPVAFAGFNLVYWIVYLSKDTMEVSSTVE
# T1 sequence (P63137 26-512): as the sequence (P63137 26-512) above
# T1 sequence (P22933 25-449): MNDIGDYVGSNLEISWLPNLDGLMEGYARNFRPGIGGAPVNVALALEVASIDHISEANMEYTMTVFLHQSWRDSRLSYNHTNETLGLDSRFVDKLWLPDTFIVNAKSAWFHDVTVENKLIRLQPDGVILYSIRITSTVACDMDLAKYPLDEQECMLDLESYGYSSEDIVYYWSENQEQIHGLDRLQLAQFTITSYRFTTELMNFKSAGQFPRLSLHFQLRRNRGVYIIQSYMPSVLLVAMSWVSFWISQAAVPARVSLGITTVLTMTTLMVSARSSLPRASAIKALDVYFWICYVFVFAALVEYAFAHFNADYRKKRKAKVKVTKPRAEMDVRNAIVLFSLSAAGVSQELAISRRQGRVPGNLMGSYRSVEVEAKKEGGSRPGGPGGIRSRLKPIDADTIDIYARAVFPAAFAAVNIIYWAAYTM
# T6 sequence (P62812 28-455 V283S): as the sequence (P62812 28-455) above, with V256S counted along it
# T6 sequence (P63137 26-512): as the sequence (P63137 26-512) above
# T6 sequence (P22723 39-474): as the sequence (P22723 39-474) above
# T4 sequence (P24046 22-479): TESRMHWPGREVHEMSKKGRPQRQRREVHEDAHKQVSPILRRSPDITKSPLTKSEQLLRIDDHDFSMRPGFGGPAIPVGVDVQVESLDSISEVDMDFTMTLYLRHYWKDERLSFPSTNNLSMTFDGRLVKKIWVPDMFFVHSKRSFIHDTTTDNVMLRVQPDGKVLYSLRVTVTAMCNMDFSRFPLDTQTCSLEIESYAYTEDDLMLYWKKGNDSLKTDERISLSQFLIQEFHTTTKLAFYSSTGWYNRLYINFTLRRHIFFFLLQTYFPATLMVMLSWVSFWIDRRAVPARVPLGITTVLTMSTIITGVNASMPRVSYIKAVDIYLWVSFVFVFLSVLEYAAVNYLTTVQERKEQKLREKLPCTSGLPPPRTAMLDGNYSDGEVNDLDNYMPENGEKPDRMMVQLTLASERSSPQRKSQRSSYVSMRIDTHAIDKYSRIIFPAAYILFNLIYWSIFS
# T10 sequence (P24046 22-479 P315V): as the sequence (P24046 22-479) above, with P294V counted along it
# T13 sequence (P26048 29-451): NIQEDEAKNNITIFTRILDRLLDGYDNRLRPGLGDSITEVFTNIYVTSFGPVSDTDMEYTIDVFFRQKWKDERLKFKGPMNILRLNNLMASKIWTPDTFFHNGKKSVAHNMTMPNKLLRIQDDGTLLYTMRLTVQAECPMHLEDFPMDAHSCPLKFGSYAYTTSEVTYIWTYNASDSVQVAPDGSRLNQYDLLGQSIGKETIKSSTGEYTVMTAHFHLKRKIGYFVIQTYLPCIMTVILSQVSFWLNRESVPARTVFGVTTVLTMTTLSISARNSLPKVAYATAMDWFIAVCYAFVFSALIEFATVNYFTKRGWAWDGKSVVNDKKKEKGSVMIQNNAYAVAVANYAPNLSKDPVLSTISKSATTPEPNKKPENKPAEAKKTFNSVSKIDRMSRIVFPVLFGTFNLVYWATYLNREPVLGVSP
# T13 sequence (P63137 26-512): as the sequence (P63137 26-512) above
# T13 sequence (P22723 39-474): as the sequence (P22723 39-474) above
# T5 sequence (Q9D6F4 36-552): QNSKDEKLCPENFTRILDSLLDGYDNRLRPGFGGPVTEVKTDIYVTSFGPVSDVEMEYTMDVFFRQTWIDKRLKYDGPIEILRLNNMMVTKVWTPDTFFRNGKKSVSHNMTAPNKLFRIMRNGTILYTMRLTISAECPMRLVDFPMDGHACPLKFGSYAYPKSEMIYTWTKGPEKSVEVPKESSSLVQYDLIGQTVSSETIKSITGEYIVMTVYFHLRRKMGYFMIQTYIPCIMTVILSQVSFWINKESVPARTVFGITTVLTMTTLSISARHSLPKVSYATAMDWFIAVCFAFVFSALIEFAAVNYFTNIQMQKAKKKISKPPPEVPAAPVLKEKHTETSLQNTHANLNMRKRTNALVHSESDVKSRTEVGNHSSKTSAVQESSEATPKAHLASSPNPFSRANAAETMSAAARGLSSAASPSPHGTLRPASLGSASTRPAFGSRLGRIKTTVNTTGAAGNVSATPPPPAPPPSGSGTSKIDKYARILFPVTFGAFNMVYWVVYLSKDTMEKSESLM
# T5 sequence (P63137 26-512): as the sequence (P63137 26-512) above
# T5 sequence (P22933 25-449): as the sequence (P22933 25-449) above
# T3 sequence (P62812 28-455): as the sequence (P62812 28-455) above
# T3 sequence (P63137 26-512): as the sequence (P63137 26-512) above
compound,measurement,setting,value
NCCCC(=O)O [GABA],EC50,[1],0.2 ± 0.02 µM
same,EC50,[2],64.6 ± 14.3 µM
CC(=O)[C@H]1CC[C@H]2[C@@H]3CC=C4C[C@@H](OS(=O)(=O)O)CC[C@]4(C)[C@H]3CC[C@]12C [pregnenolone sulphate],IC50,[3],1.3 ± 0.07 µM
same,IC50,[4],> 300 µM
same,IC50,[5],1.3 ± 0.1 µM
same,IC50,[6],35.5 ± 8.2 µM
same,IC50,[7],1 ± 0.08 µM
same,IC50,[8],1.3 ± 0.1 µM
same,IC50,[9],0.6 ± 0.05 µM
same,IC50,[10],7.9 ± 1.7 µM
same,% of control peak current at 100 μM PS,[11],39.2 ± 5.1%
same,IC50,[12],6 ± 0.6 µM
same,"whole-cell patch clamp, HEK cells",[13],neurosteroid caused a concentration-dependent block of the PB-induced peak current
same,IC50,[14],0.4 ± 0.05 µM
same,IC50,[15],0.4 ± 0.05 µM
same,IC50,[16],0.7 ± 0.1 µM
picrotoxinin,% of control peak current at 10 μM PTX,[17],37.3 ± 8.1%
